Results as given in patent US20090123389A1, “Methods for modulating Th17 cell development in the treatment and prevention of cellulite” (priority 2007, published 2009).
“And” between values parts separate entries of the source, which are not always exact repeats. Identical values can stand only once. Like-named read-outs stand apart in the source and are kept apart here.

Tested on: CD4+ CD25− T cells
Assay: Th17 differentiation / IL-17 expression of activated CD4+ CD25− T cells (TGFβ plus IL-6)
Type: cell-based, mouse
Details: for IC50: Mus musculus, T-cell
Method: Low doses of halofuginone (HF) were tested to determine the ability of HF to enhance Treg differentiation, while suppressing Th17 differentiation. Naïve CD4+ T cells (CD4+ CD25−) were isolated from the spleen and peripheral lymph nodes of C57B/6 mice. T cells were then activated using anti-CD3 (0.3 μg/ml) and anti-CD28 (0.5 μg/ml) antibodies either in media alone (row 1, 4), TGFβ alone (3 ng/ml—row 2, 5) or TGFβ (3 ng/ml) plus IL-6 (30 ng/ml) (row 3, 6). […] T cells were cultured for 3 days and CD25 and Foxp3 expression (Treg marker genes) was determine by FACS staining and flow cytometric analyses. Simultaneously, T cells were harvested and re-stimulated for 4 hours using phorbol myristic acetate (PMA; 10 nM), Ionomycin (1 μM) and cytokine secretion was prevented using brefeldin A (20 μg/ml). Following stimulation, the production of IL-17 and IFNγ were determined by intracellular staining and analyzed via flow cytometry.
The dose-response of HF on CD4+ T cell proliferation, activation (i.e. CD25 upregulation) and differentiation to Th1, Th2 and Th17 lineages were evaluated. Purified murine naïve CD4+ CD25− T cells were activated using anti-CD3 (0.3 μg/ml) and anti-CD28 (0.5 μg/ml) antibodies and varying amounts of HF was added to each T cell culture condition (1.25 nM-40 nM). CD4+ T cell proliferation was monitored by CFSE dilution on day 3-post activation and CD25 expression was evaluated by FACS staining 2 days after activation. For T cell differentiation experiments, naïve T cells were activated as above in the presence of Th1 (IL-12 (20 ng/ml) plus anti-IL-4 (1.5 μg/ml)), Th2 (IL-4 (50 ng/ml) plus anti-IFNγ (0.5 mg/ml)) or Th17 (TGFβ (3 ng/ml) plus IL-6 (30 ng/ml)) polarizing conditions plus titrating amounts of HF (1.25 nM-40 nM) or MAZ1310 (40 nM). […] All cytokine expression was determined by intracellular staining following PMA+Ionomycin+Brefeldin A re-stimulation and all data was normalized to control (MAZ1310)-treated cells. […] Biol., vol. 80:1-8 (2006).
Cytokines, antibodies and T cell culture: Purified CD4^+ CD25^− T cells were activated in vitro as previously described (I. M. Djuretic et al., Nat Immunol 8, 145 (2007)) using 0.3 μg/ml hamster anti-mouse CD3 (clone 145-2C11) (ATCC—Manassas, Va.) and 0.5 μg/ml hamster anti-mouse CD28 (BD Pharmingen, San Jose, Calif.). Activated cell cultures were differentiated using the following combinations of cytokines and antibodies: iTreg=recombinant human TGFβ1 (3 ng/ml; R&D systems, Minneapolis, Minn.), Th17=TGFβ1 (3 ng/ml) plus recombinant mouse IL-6 (30 ng/ml, R&D systems). Th1 and Th2 differentiation was performed as previously described. (I. M. Djuretic et al., Nat Immunol 8, 145 (2007)). Human IL-2 supernatant (National Cancer Institute) was used in culture at 0.01 U/ml and was added at 48 hours-post activation when T cells were split into tissue culture wells lacking CD3 and CD28 antibodies, with the exception of Th17 cultures that were maintained in the absence of IL-2. All reagents were added at the time of T cell activation and again at 48-hours post activation unless indicated otherwise. For some experiments, purified CD4^+ CD25^− T cells, CD8^+ T cells or B cells were labeled with 1 μM CFSE (Invitrogen) prior to activation in accordance with manufacturers instructions.
MAZ1310 was generated by chemical derivatization of halofuginone and was used at equal concentrations as a negative control.

For `O=C(CC1NCCCC1O)Cn1cnc2cc(Br)c(Cl)cc2c1=O` (racemic) [HF, 7-bromo-6-chloro-3-[3-(3-hydroxy-2-piperidinyl)-2-oxopropyl]-4(3H)-quinazolinone], the “IL-17 expression in cultures where IFNγ and IL-4 were blocked by neutralizing antibodies” value was “reduced IL-17 expression”, the “window of HF addition at start of culture giving most pronounced inhibition of IL-17 expression” value (10 nM HF added at different times after activation) was 12 h and the “IL-17 expression in T cells lacking Foxp3” value (10 nM HF, TGFβ plus IL-6) was “strongly repressed”. The “Th17 differentiation of T cells expressing STAT3C” value (10 nM HF, TGFβ plus IL-6) was “remained capable of differentiating into Th17 cells”, the “Il17 and Il17f mRNA expression” value (10 nM HF, Th17 conditions, 4 days) was “impaired expression” and the IC50 (96 h, percentage of IL-17+ IFNγ− cells after restimulation on day 4-5, read-out: IC50 of repression of Th17 differentiation) was 3.6 nM. The IC50 (in vitro, read-out: 50% inhibition of Th17 cell development) was 2 to 3 nM, the “Th17 differentiation of cells expressing YFP or no transgene” value (TAT-Cre treated T cells, TGFβ plus IL-6) was “strongly impaired” and the “HF concentration that inhibited expression of IL-17” value (TGFβ/IL-6 treated T-cells) was 2.5 to 10 nM and 2.2 to 10 nM. The IL-17 production (low concentrations of HF (1-10 nM)) was “strongly reduced” and the “fold lower doses for effects on Th17 differentiation than for general inhibition of T-cell proliferation and differentiation” value (versus proliferation and Th1 or Th2 differentiation) was 5- to 10 fold and ~10 fold.
